Converted amounts (≈) assume the structure as drawn.
How the values were obtained:
[1] = test system: Staphylococcus aureus (ATCC 25923); test: Cell viability assay (resazurin) screening for antibacterial activity; assay type: cell-based; set-up: key: Positive: A positive result indicates antibacterial activity expressed as growth inhibition; Negative: a negative result indicates no antibacterial activity expressed as bacterial growth at the tested concentration; conditions: single high concentration of 1 mg/mL
[2] = test system: Enterococcus faecalis (ATCC 29212); test: as above; assay type: cell-based; set-up: key: Positive: A positive result indicates antibacterial activity expressed as growth inhibition; Negative: a negative result indicates no antibacterial activity expressed as bacterial growth at the tested concentration; conditions: single high concentration of 1 mg/mL
[3] = test system: Bacillus subtilis (environmental isolate); test: as above; assay type: cell-based; set-up: key: Positive: A positive result indicates antibacterial activity expressed as growth inhibition; Negative: a negative result indicates no antibacterial activity expressed as bacterial growth at the tested concentration; conditions: single high concentration of 1 mg/mL
[4] = test system: Escherichia coli (ATCC 25922); test: as above; assay type: cell-based; set-up: key: Positive: A positive result indicates antibacterial activity expressed as growth inhibition; Negative: a negative result indicates no antibacterial activity expressed as bacterial growth at the tested concentration; conditions: single high concentration of 1 mg/mL
[5] = test system: Pseudomonas aeruginosa (ATCC 27853); test: as above; assay type: cell-based; set-up: key: Positive: A positive result indicates antibacterial activity expressed as growth inhibition; Negative: a negative result indicates no antibacterial activity expressed as bacterial growth at the tested concentration; conditions: single high concentration of 1 mg/mL
S. aureus (ATCC 25923) = test: MIC by broth microdilution; assay type: cell-based; conditions: Staphylococcus aureus, ATCC25923
Description: (§1) Bacteria of the genus Staphylococcus were selected for MIC investigation due to its clinical importance. Compounds showing activity against S. aureus (ATCC 25923) were tested against 10 multidrug-resistant strains of Staphylococcus species, including: clinical isolates methicillin-resistant Staphylococcus aureus (MRSA) strains MRSA-1, MRSA-2, and MRSA-3, and environmental isolates S. saprophyticus (strains UDH-1, UDH-2, UDH-3 and UDH-4), S. haemolyticus (strains UDH-6 and UDH-7), and S. epidermidis strain UDH-5.
(§2) A broth microdilution method was used to measure MIC according to the Clinical and Laboratory Standards Institute guidelines. Two-fold serial dilutions of the test compound (8 concentrations ranged between 100-0.78 μg/mL) were tested. Two reference antibiotics were used as quality controls (ciprofloxacin and amikacin). In each experiment, solvent (DMSO) was used as a negative control, un-treated control (composing of bacteria in Mueller-Hinton broth) was used as a growth control, blank (culture media alone) was used as sterility control. The 96-well microplate with the test compounds was incubated for 20 hours at 37° C. Turbidity in wells indicated bacterial growth. […] For the definite determination of MIC, CellTiter-Blue® Cell Viability Assay (Promega, USA) was used (as above). The MIC was defined as the lowest compound concentration that prevented the color change of the Cell Viability solution (absence of bacterial growth; thus, suspension remained blue in color). For the definite determination of MIC, CellTiter-Blue® Cell Viability Assay (Promega, USA) was used (as above). To each well of the 96-well microplate, 20 μL of the Cell Viability Assay solution was added to the overnight (20 hours culture) and incubated at 37° C. for 4 hours. After the end of the incubation, pink and blue colors were used to differentiate viable from dead bacterial suspensions, respectively. The MIC was defined as the lowest compound concentration that prevented the color change.

[6] = test system: MRSA-1 (clinical isolate, methicillin-resistant Staphylococcus aureus); test: MIC by broth microdilution; assay type: cell-based; conditions: for MIC: Staphylococcus aureus, MRSA, clinical isolate
Description: (§3) Bacteria of the genus Staphylococcus were selected for MIC investigation due to its clinical importance.
as §2, with “Two reference antibiotics were used as quality controls (ciprofloxacin and amikacin).” left out

[7] = test system: MRSA-2 (clinical isolate, methicillin-resistant Staphylococcus aureus); test: MIC by broth microdilution; assay type: cell-based
Description: as §3
as §2, with “Two reference antibiotics were used as quality controls (ciprofloxacin and amikacin).” left out

[8] = test system: MRSA-3 (clinical isolate, methicillin-resistant Staphylococcus aureus); test: MIC by broth microdilution; assay type: cell-based
Description: as §3
as §2, with “Two reference antibiotics were used as quality controls (ciprofloxacin and amikacin).” left out

[9] = test system: UDH-1 (environmental isolate, S. saprophyticus); test: MIC by broth microdilution; assay type: cell-based; conditions: for MIC: Staphylococcus saprophyticus, environmental isolate; for times lower than MIC of ciprofloxacin: UDH-1
Description: as §1
(§4) All these strains were resistant to at least three antibiotics from different classes, as confirmed by a disk diffusion assay.
as §2

[10] = test system: UDH-2 (environmental isolate, S. saprophyticus); test: MIC by broth microdilution; assay type: cell-based; conditions: Staphylococcus saprophyticus
Description: as §1, §4, §2

[11] = test system: UDH-3 (environmental isolate, S. saprophyticus); test: MIC by broth microdilution; assay type: cell-based; conditions: for MIC: Staphylococcus saprophyticus, environmental isolate; for times lower than MIC of ciprofloxacin: UDH-3
Description: as §1, §4, §2

[12] = test system: UDH-4 (environmental isolate, S. saprophyticus); test: MIC by broth microdilution; assay type: cell-based; conditions: Staphylococcus saprophyticus
Description: as §1, §4, §2

[13] = test system: UDH-5 (environmental isolate, S. epidermidis); test: MIC by broth microdilution; assay type: cell-based; conditions: Staphylococcus epidermidis
Description: as §1, §4, §2

[14] = test system: UDH-6 (environmental isolate, S. haemolyticus); test: MIC by broth microdilution; assay type: cell-based; conditions: for MIC: Staphylococcus haemolyticus, environmental isolate
Description: as §1, §4, §2

[15] = test system: UDH-7 (environmental isolate, S. haemolyticus); test: MIC by broth microdilution; assay type: cell-based; conditions: for MIC: Staphylococcus haemolyticus, environmental isolate
Description: as §1, §4, §2

MRSA-1 = test: Time-kill study; assay type: cell-based, Staphylococcus aureus
Description: Time-kill study: Compound 1o was tested for the time required to kill the bacterial strain MRSA-1. A time-kill assay was performed by the broth micro-dilution method in accordance with the CLSI guidelines. Inoculum suspensions with approximately 5×10^5 CFU/mL of exponentially growing bacterial cells were incubated in each well of a 96-well plate. […] Aliquots of 20 μL were removed from the inoculum culture after timed intervals of incubation (i.e. 0, 30 minutes, 1, 2, 4, 6, 8, and 24 hours), and serial 10-fold dilutions were prepared in 0.85% sodium chloride solution. Then, 10-100 μL of each dilution (as appropriate) were spread on the surface of Mueller-Hinton agar plates and incubated at 37° C. for 24 hours. Plate count technique was used to determine the number of viable cells for each time point. The experiments were performed in triplicate. Meropenem and ciprofloxacin were used as quality control antibiotics.

Row | Structure (SMILES) | MIC (S. aureus (ATCC 25923)) [µg/mL] | MIC [6] [µg/mL] | MIC [7] [µg/mL] | MIC [8] [µg/mL] | MIC [9] [µg/mL] | MIC [10] [µg/mL] | MIC [11] [µg/mL] | MIC [12] [µg/mL] | MIC [13] [µg/mL] | times lower than MIC of ciprofloxacin [9] | antibacterial activity, Staphylococcus aureus [1] | antibacterial activity, Enterococcus faecalis [2] | antibacterial activity, Bacillus subtilis [3] | antibacterial activity, Escherichia coli [4] | antibacterial activity, Pseudomonas aeruginosa [5] | MIC [14] [µg/mL] | MIC [15] [µg/mL] | also measured
1 | C[C@@H](O)[C@H]1C(=O)N2C(C(=O)O)=C(S[C@@H]3CN[C@H](C(=O)N(C)C)C3)[C@H](C)[C@H]12 [meropenem, reference compound] | – | – | – | – | – | – | – | – | – | – | – | – | – | – | – | – | – | time of exposure at which killing was achieved (MRSA-1; 8 μg/mL): 8 h; time of exposure at which killing was achieved (MRSA-1; 16 μg/mL): 6 h; time of exposure at which killing was achieved (MRSA-1; 2-4 μg/mL): 24 h; time of exposure at which killing was achieved (complete inhibition of bacterial growth) (MRSA-1; 32-64 μg/mL): 4 h
2 | O=C(O)c1cn(C2CC2)c2cc(N3CCNCC3)c(F)cc2c1=O [Ciprofloxacin, ciprofloxacin, reference compound] | 0.5 (≈ 1.51 µM) | – | – | – | 64 (≈ 193 µM) | 64 (≈ 193 µM) | 64 (≈ 193 µM) | 64 (≈ 193 µM) | < 0.25 | – | – | – | – | – | – | 64 (≈ 193 µM) | 64 (≈ 193 µM) | time of exposure at which killing was achieved (complete growth inhibition) (MRSA-1; 32-256 μg/mL): 24 h
3 | COC(=O)CC1COc2c(cc3c4c2CCCN4CCC3)-c2c(NC(C)(C)C)n3c(-c4cc(OC)ccc4OC)csc3[n+]21 (stereo not drawn) [Compound 1t] | 3.12 | 6.25 | 3.12 | 3.12 | 6.25 | 6.25 | 6.25 | 6.25 | 3.12 | approximately 10 times | Positive | Positive | Positive | Negative | Negative | 12.5 | 12.5 | –

The remaining compounds from weak to strong by MIC (S. aureus (ATCC 25923)), led by results:

Row | MIC (S. aureus (ATCC 25923)) [µg/mL] | MIC [6] [µg/mL] | MIC [7] [µg/mL] | MIC [8] [µg/mL] | MIC [9] [µg/mL] | MIC [10] [µg/mL] | MIC [11] [µg/mL] | MIC [12] [µg/mL] | MIC [13] [µg/mL] | times lower than MIC of ciprofloxacin [9] | Structure (SMILES) | antibacterial activity, Staphylococcus aureus [1] | antibacterial activity, Enterococcus faecalis [2] | antibacterial activity, Bacillus subtilis [3] | antibacterial activity, Escherichia coli [4] | antibacterial activity, Pseudomonas aeruginosa [5] | MIC [14] [µg/mL] | MIC [15] [µg/mL] | also measured
4 | 12.5 | 12.5 | 12.5 | 12.5 | 12.5 | 25 | 12.5 | 25 | 6.25 | – | CCOC(=O)c1sc2n(c(NC(C)(C)C)c3[n+]2C(CC(=O)OC)COc2c-3cc3c4c2CCCN4CCC3)c1-c1ccccc1 (stereo not drawn) [Compound 1r] | Positive | Positive | Positive | Negative | Negative | 50 | 50 | –
5 | 6.25 | 6.25 | 6.25 | 3.12 | 6.25 | 6.25 | 3.12 | 6.25 | 1.56 | approximately 10 times | CCN(CC)c1ccc2c(c1)OCC(CC(=O)OC)[n+]1c-2c(NC(C)(C)C)n2c(-c3ccc(OC)cc3)c(-c3ccc(OC)cc3)sc21 (stereo not drawn) [Compound 1h] | Positive | Positive | Positive | Negative | Negative | 6.25 | 12.5 | times lower than MIC of ciprofloxacin [11]: approximately 20 times
6 | 6.25 | 6.25 | 6.25 | 6.25 | 12.5 | 25 | 12.5 | 6.25 | 3.12 | – | COC(=O)CC1COc2c(cc3c4c2CCCN4CCC3)-c2c(NC(C)(C)C)n3c(-c4ccc(F)c(F)c4)csc3[n+]21 (stereo not drawn) [Compound 1s] | Positive | Positive | Positive | Negative | Negative | 25 | 25 | –
7 | 3.12 | 6.25 | 6.25 | 6.25 | 12.5 | 25 | 6.25 | 6.25 | 1.56 | – | COC(=O)CC1COc2c(cc3c4c2CCCN4CCC3)-c2c(NC(C)(C)C)n3c(-c4cccc5c4OCCO5)csc3[n+]21 (stereo not drawn) [Compound 1p] | Positive | Positive | Positive | Negative | Negative | 12.5 | 12.5 | –
8 | 3.12 | 3.12 | 3.12 | 3.12 | 6.25 | 6.25 | 3.12 | 6.25 | 1.56 | approximately 10 times | COC(=O)CC1COc2c(cc3c4c2CCCN4CCC3)-c2c(NC(C)(C)C)n3c(-c4cccc5c4OCO5)c(C)sc3[n+]21 (stereo not drawn) [Compound 1u] | Positive | Positive | Positive | Negative | Negative | 6.25 | 6.25 | times lower than the MIC of ciprofloxacin ([6]; MRSA-1): approximately 10 times; times lower than MIC of ciprofloxacin [11]: approximately 20 times; times lower than MIC of ciprofloxacin ([14]; UDH-6): approximately 10 times; times lower than MIC of ciprofloxacin ([15]; UDH-7): approximately 10 times
